Measurements as given in US20220031611A1, “IMMUNOSUPPRESSIVE DOSAGE FORMS AND METHODS OF USE” (Gemini Laboratories, LLC, priority 2018, published 2022).

Assay: Storage stability: % assay of Tacrolimus
Format: physicochemical
Settings: active pharmaceutical ingredient (API) lot, comparator
From the text: The pharmaceutical formulations disclosed herein may comprise oral formulations having improved solubility and/or stability profiles. The formulations may be suitable for oral delivery, for example via a solution or suspension. The formulations orally administrated via a solution or suspension can be bioequivalent to formulations administered via oral capsules, or any other administration route. The formulations disclosed herein are stable under standard storage conditions or accelerated conditions. The total amount of impurities in the formulations may be not more than about 0.1 to 3%, and standard storage conditions may comprise a temperature of about 20 to 25° C. (i.e., room temperature) and no more than about 40% Relative Humidity (RH). In one embodiment, the formulations disclosed herein are stable at room temperature for 18 to 24 months or longer. The stability of a formulation according to the present disclosure can be determined, for example, by measuring the physical state of the formulation, including the viscosity and presence of any discoloration and chemical stability by measuring assay of API & related compound. Tables 4 and 5 present stability characteristics of the compositions provided in Examples 1 & 2 above. The following Tables 8-9 show purity of a Tacrolimus oral solution of 1 mg/ml as a percent assay, based on the batch descriptions in Table 7. […]

SMILES: C=CC[C@@H]1/C=C(\C)C[C@H](C)C[C@H](OC)[C@H]2O[C@@](O)(C(=O)C(=O)N3CCCC[C@H]3C(=O)O[C@H](/C(C)=C/[C@@H]3CC[C@@H](O)[C@H](OC)C3)[C@H](C)[C@@H](O)CC1=O)[C@H](C)C[C@@H]2OC [API_Lot # DMP (079)-38, Tacrolimus]
- % Assay: 97.1%
